Measurements from US7381521B2, “Anti-pathogenic composition useful in blood preservation” (Altachem Pharma Ltd., priority 2001, dated 2008).

How the values were obtained:
[1] = test system: AgHBs; assay: In vitro degradation of the antigen of hepatitis B virus (AgHBs), virocide + human serum of a hepatitis B patient; type: biochemical; details: Bardac 0.2%
From the text: Action on In Vitro Degradation of the Antigen of Hepatitis B Virus (AgHBs) of the Hepatitis B Virus: Virocide+Human Serum Taken from a Patient with Hepatitis B ( 1/1000th)

[2] = test system: herpes virus Hominis type 1, strain Bey (HSV1); assay: Immediate virocidal action, zone-forming units on vero cells; type: cell-based; details: day 4, three culture dishes
[3] = test system: S. aureus ATCC 6538; assay: Test 2 (DGHM), action as a function of disinfection time at 22° C., 8 × 10^8 organisms/ml; type: cell-based, Staphylococcus aureus
Protocol: (§1) Another test was carried out a basis of the following solutions • 100 ml of a 0.1% solution of chlorohexidine digluconate (pH 6); and • 100 ml of a 0.1% solution of Bardac22®.
(§2) The activity of these solutions, alone or in combination, was more particularly tested in respect of Staphylococcus aureus ATCC 6538, Escherichia coli ATCC 11229 and Candida albicans ATCC 10231.
(§3) The tests were conducted in accordance with the procedure described in Chapter I/2.1 and 2.2 of Tichtlinien für die Prüfung und Bewertung chemischer Desinfektionsverfahren der DGHM/Guidelines for Testing and Evaluating Chemical Disinfection Processes of DGHM as at 1.1, 1981.

[4] = test system: E. coli ATCC 11229; assay: Test 2 (DGHM), action as a function of disinfection time at 22° C., 2 × 10^9 organisms/ml; type: cell-based, Escherichia coli
Protocol: as §1, §2, §3

CCCCCCCCCC[N+](C)(C)CCCCCCCCCC.[Cl-] [Bardac ®, didecyl dimethyl ammonium chloride] was tested, and the “Residual AgHBs (ratio)” value [1] was 1.35, the “Number of zone-forming units per milliliter of virus diluted to 10^−4” value ([2]; Bardac 0.02%) was 30/125/45 and the “Number of zone-forming units per milliliter of virus diluted to 10^−4” value ([2]; Bardac, concentration not given, second series (control virus at 10^−6)) was 26/17/20. For the same molecule, the growth ([3]; 0.05% vol/vol, 1 min) was “+”, the growth ([3]; 0.05% vol/vol, 3 min) was “+” and the growth ([3]; 0.05% vol/vol, 5 min) was “+”. For the same molecule, the growth ([3]; 0.05% vol/vol, 15 min) was “+”, the growth ([3]; 0.05% vol/vol, 30 min) was “+” and the growth ([3]; 0.05% vol/vol, 60 min) was “+”. The growth ([3]; 0.1% vol/vol, 1 min) was “+”, the growth ([3]; 0.1% vol/vol, 3 min) was “+” and the growth ([3]; 0.1% vol/vol, 5 min) was “+”. The growth ([3]; 0.1% vol/vol, 15 min) was “+”, the growth ([3]; 0.1% vol/vol, 30 min) was “+” and the growth ([3]; 0.1% vol/vol, 60 min) was “+”. The growth ([3]; 0.5% vol/vol, 1 min) was “+”, the growth ([3]; 0.5% vol/vol, 3 min) was “+” and the growth ([3]; 0.5% vol/vol, 5 min) was “+”. For the same molecule, the growth ([3]; 0.5% vol/vol, 15 min) was “+”, the growth ([3]; 0.5% vol/vol, 30 min) was “+” and the growth ([3]; 0.5% vol/vol, 60 min) was “+”. For the same molecule, the growth ([3]; 1% vol/vol, 1 min) was “+”, the growth ([3]; 1% vol/vol, 3 min) was “+” and the growth ([3]; 1% vol/vol, 5 min) was “+”. For the same molecule, the growth ([3]; 1% vol/vol, 15 min) was “+”, the growth ([3]; 1% vol/vol, 30 min) was “−” and the growth ([3]; 1% vol/vol, 60 min) was “−”. The growth ([3]; 5% vol/vol, 1 min) was “+”, the growth ([3]; 5% vol/vol, 3 min) was “+” and the growth ([3]; 5% vol/vol, 5 min) was “+”. For the same molecule, the growth ([3]; 5% vol/vol, 15 min) was “−”, the growth ([3]; 5% vol/vol, 30 min) was “−” and the growth ([3]; 5% vol/vol, 60 min) was “−”. For the same molecule, the growth ([3]; 10% vol/vol, 1 min) was “+”, the growth ([3]; 10% vol/vol, 3 min) was “−” and the growth ([3]; 10% vol/vol, 5 min) was “−”. The growth ([3]; 10% vol/vol, 15 min) was “−”, the growth ([3]; 10% vol/vol, 30 min) was “−” and the growth ([3]; 10% vol/vol, 60 min) was “−”. The growth ([3]; 25% vol/vol, 1 min) was “+”, the growth ([3]; 25% vol/vol, 3 min) was “−” and the growth ([3]; 25% vol/vol, 5 min) was “−”. The growth ([3]; 25% vol/vol, 15 min) was “−”, the growth ([3]; 25% vol/vol, 30 min) was “−” and the growth ([3]; 25% vol/vol, 60 min) was “−”. The growth ([4]; 0.05% vol/vol, 1 min) was “+”, the growth ([4]; 0.05% vol/vol, 3 min) was “+” and the growth ([4]; 0.05% vol/vol, 5 min) was “+”. For the same molecule, the growth ([4]; 0.05% vol/vol, 15 min) was “+”, the growth ([4]; 0.05% vol/vol, 30 min) was “+” and the growth ([4]; 0.05% vol/vol, 60 min) was “+”. For the same molecule, the growth ([4]; 0.1% vol/vol, 1 min) was “+”, the growth ([4]; 0.1% vol/vol, 3 min) was “+” and the growth ([4]; 0.1% vol/vol, 5 min) was “+”. For the same molecule, the growth ([4]; 0.1% vol/vol, 15 min) was “+”, the growth ([4]; 0.1% vol/vol, 30 min) was “+” and the growth ([4]; 0.1% vol/vol, 60 min) was “+”. For the same molecule, the growth ([4]; 0.5% vol/vol, 1 min) was “+”, the growth ([4]; 0.5% vol/vol, 3 min) was “+” and the growth ([4]; 0.5% vol/vol, 5 min) was “+”. For the same molecule, the growth ([4]; 0.5% vol/vol, 15 min) was “+”, the growth ([4]; 0.5% vol/vol, 30 min) was “+” and the growth ([4]; 0.5% vol/vol, 60 min) was “+”. The growth ([4]; 1% vol/vol, 1 min) was “+”, the growth ([4]; 1% vol/vol, 3 min) was “+” and the growth ([4]; 1% vol/vol, 5 min) was “+”. For the same molecule, the growth ([4]; 1% vol/vol, 15 min) was “+”, the growth ([4]; 1% vol/vol, 30 min) was “+” and the growth ([4]; 1% vol/vol, 60 min) was “+”. For the same molecule, the growth ([4]; 5% vol/vol, 1 min) was “+”, the growth ([4]; 5% vol/vol, 3 min) was “+” and the growth ([4]; 5% vol/vol, 5 min) was “+”. The growth ([4]; 5% vol/vol, 15 min) was “−”, the growth ([4]; 5% vol/vol, 30 min) was “−” and the growth ([4]; 5% vol/vol, 60 min) was “−”. The growth ([4]; 10% vol/vol, 1 min) was “+”, the growth ([4]; 10% vol/vol, 3 min) was “+” and the growth ([4]; 10% vol/vol, 5 min) was “−”. The growth ([4]; 10% vol/vol, 15 min) was “−”, the growth ([4]; 10% vol/vol, 30 min) was “−” and the growth ([4]; 10% vol/vol, 60 min) was “−”. For the same molecule, the growth ([4]; 25% vol/vol, 1 min) was “−”, the growth ([4]; 25% vol/vol, 3 min) was “−” and the growth ([4]; 25% vol/vol, 5 min) was “−”. For the same molecule, the growth ([4]; 25% vol/vol, 15 min) was “−”, the growth ([4]; 25% vol/vol, 30 min) was “−” and the growth ([4]; 25% vol/vol, 60 min) was “−”.

In the case of [H]/N=C(\N/C(=N/[H])NCCCCCCNC(=N)NC(=N)Nc1ccc(Cl)cc1)Nc1ccc(Cl)cc1 [Chlorhexidine, chlorohexidine digluconate, reference compound], the growth ([3]; 0.05% vol/vol, 1 min) is reported as “+”, the growth ([3]; 0.05% vol/vol, 3 min) is reported as “+” and the growth ([3]; 0.05% vol/vol, 5 min) is reported as “+”. For the same molecule, the growth ([3]; 0.05% vol/vol, 15 min) was “+”, the growth ([3]; 0.05% vol/vol, 30 min) was “+” and the growth ([3]; 0.05% vol/vol, 60 min) was “+”. The growth ([3]; 0.1% vol/vol, 1 min) was “+”, the growth ([3]; 0.1% vol/vol, 3 min) was “+” and the growth ([3]; 0.1% vol/vol, 5 min) was “+”. For the same molecule, the growth ([3]; 0.1% vol/vol, 15 min) was “+”, the growth ([3]; 0.1% vol/vol, 30 min) was “+” and the growth ([3]; 0.1% vol/vol, 60 min) was “+”. For the same molecule, the growth ([3]; 0.5% vol/vol, 1 min) was “+”, the growth ([3]; 0.5% vol/vol, 3 min) was “+” and the growth ([3]; 0.5% vol/vol, 5 min) was “+”. The growth ([3]; 0.5% vol/vol, 15 min) was “+”, the growth ([3]; 0.5% vol/vol, 30 min) was “+” and the growth ([3]; 0.5% vol/vol, 60 min) was “+”. For the same molecule, the growth ([3]; 1% vol/vol, 1 min) was “+”, the growth ([3]; 1% vol/vol, 3 min) was “+” and the growth ([3]; 1% vol/vol, 5 min) was “+”. For the same molecule, the growth ([3]; 1% vol/vol, 15 min) was “+”, the growth ([3]; 1% vol/vol, 30 min) was “+” and the growth ([3]; 1% vol/vol, 60 min) was “+”. For the same molecule, the growth ([3]; 5% vol/vol, 1 min) was “+”, the growth ([3]; 5% vol/vol, 3 min) was “+” and the growth ([3]; 5% vol/vol, 5 min) was “+”. For the same molecule, the growth ([3]; 5% vol/vol, 15 min) was “+”, the growth ([3]; 5% vol/vol, 30 min) was “+” and the growth ([3]; 5% vol/vol, 60 min) was “+”. For the same molecule, the growth ([3]; 10% vol/vol, 1 min) was “+”, the growth ([3]; 10% vol/vol, 3 min) was “+” and the growth ([3]; 10% vol/vol, 5 min) was “+”. For the same molecule, the growth ([3]; 10% vol/vol, 15 min) was “+”, the growth ([3]; 10% vol/vol, 30 min) was “+” and the growth ([3]; 10% vol/vol, 60 min) was “−”. For the same molecule, the growth ([3]; 25% vol/vol, 1 min) was “+”, the growth ([3]; 25% vol/vol, 3 min) was “+” and the growth ([3]; 25% vol/vol, 5 min) was “+”. For the same molecule, the growth ([3]; 25% vol/vol, 15 min) was “+”, the growth ([3]; 25% vol/vol, 30 min) was “−” and the growth ([3]; 25% vol/vol, 60 min) was “−”. For the same molecule, the growth ([4]; 0.05% vol/vol, 1 min) was “+”, the growth ([4]; 0.05% vol/vol, 3 min) was “+” and the growth ([4]; 0.05% vol/vol, 5 min) was “+”. The growth ([4]; 0.05% vol/vol, 15 min) was “+”, the growth ([4]; 0.05% vol/vol, 30 min) was “+” and the growth ([4]; 0.05% vol/vol, 60 min) was “+”. For the same molecule, the growth ([4]; 0.1% vol/vol, 1 min) was “+”, the growth ([4]; 0.1% vol/vol, 3 min) was “+” and the growth ([4]; 0.1% vol/vol, 5 min) was “+”. For the same molecule, the growth ([4]; 0.1% vol/vol, 15 min) was “+”, the growth ([4]; 0.1% vol/vol, 30 min) was “+” and the growth ([4]; 0.1% vol/vol, 60 min) was “+”. The growth ([4]; 0.5% vol/vol, 1 min) was “+”, the growth ([4]; 0.5% vol/vol, 3 min) was “+” and the growth ([4]; 0.5% vol/vol, 5 min) was “+”. The growth ([4]; 0.5% vol/vol, 15 min) was “+”, the growth ([4]; 0.5% vol/vol, 30 min) was “+” and the growth ([4]; 0.5% vol/vol, 60 min) was “+”. For the same molecule, the growth ([4]; 1% vol/vol, 1 min) was “+”, the growth ([4]; 1% vol/vol, 3 min) was “+” and the growth ([4]; 1% vol/vol, 5 min) was “+”. For the same molecule, the growth ([4]; 1% vol/vol, 15 min) was “+”, the growth ([4]; 1% vol/vol, 30 min) was “+” and the growth ([4]; 1% vol/vol, 60 min) was “+”. For the same molecule, the growth ([4]; 5% vol/vol, 1 min) was “+”, the growth ([4]; 5% vol/vol, 3 min) was “+” and the growth ([4]; 5% vol/vol, 5 min) was “+”. For the same molecule, the growth ([4]; 5% vol/vol, 15 min) was “+”, the growth ([4]; 5% vol/vol, 30 min) was “−” and the growth ([4]; 5% vol/vol, 60 min) was “−”. For the same molecule, the growth ([4]; 10% vol/vol, 1 min) was “+”, the growth ([4]; 10% vol/vol, 3 min) was “+” and the growth ([4]; 10% vol/vol, 5 min) was “+”. For the same molecule, the growth ([4]; 10% vol/vol, 15 min) was “−”, the growth ([4]; 10% vol/vol, 30 min) was “−” and the growth ([4]; 10% vol/vol, 60 min) was “−”. The growth ([4]; 25% vol/vol, 1 min) was “+”, the growth ([4]; 25% vol/vol, 3 min) was “+” and the growth ([4]; 25% vol/vol, 5 min) was “+”. The growth ([4]; 25% vol/vol, 15 min) was “−”, the growth ([4]; 25% vol/vol, 30 min) was “−” and the growth ([4]; 25% vol/vol, 60 min) was “−”.
